# Laboratory results: patent publication US12661342B2, “Heteroaryl compounds and therapeutic uses thereof in conditions associated with the alteration of the activity of beta-glucocerebrosidase” (GT GAIN THERAPEUTICS SA, priority 2019, dated 2026)
# Molecular target: T1, β-glucocerebrosidase (Homo sapiens, UniProt P04062, L483P)
# T1 construct: host or cells: human Gaucher disease patient fibroblasts GM08760A
# T1 sequence (P04062 40-536 L483P): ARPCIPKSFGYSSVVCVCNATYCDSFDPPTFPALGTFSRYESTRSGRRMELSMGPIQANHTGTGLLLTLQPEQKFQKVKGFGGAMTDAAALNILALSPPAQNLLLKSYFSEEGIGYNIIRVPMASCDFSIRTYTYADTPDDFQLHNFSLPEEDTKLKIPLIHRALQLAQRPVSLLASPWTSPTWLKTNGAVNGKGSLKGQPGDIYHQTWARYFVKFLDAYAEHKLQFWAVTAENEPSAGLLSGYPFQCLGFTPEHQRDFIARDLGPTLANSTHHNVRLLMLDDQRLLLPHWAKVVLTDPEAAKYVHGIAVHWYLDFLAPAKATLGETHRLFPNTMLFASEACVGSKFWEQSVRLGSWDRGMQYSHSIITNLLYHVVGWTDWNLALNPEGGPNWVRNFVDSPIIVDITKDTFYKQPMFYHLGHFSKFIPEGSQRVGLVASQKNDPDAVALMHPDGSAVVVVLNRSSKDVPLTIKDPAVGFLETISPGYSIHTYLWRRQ
# Assay: Enhancement of β-glucocerebrosidase activity measured in Gaucher disease fibroblasts (4-MU-β-D-glucopyranoside substrate, intact cells)
# Type: cell-based
# Parameters: key: Increase in comparison with non-treated of >2.0 fold is shown as A; Increase in comparison with non-treated of >1.7-2.0 fold is shown as B; Increase in comparison with non-treated of 1.2-1.7 fold is shown as C; D means that no increase compared with non-treated cells was detected in this method
# Conditions: GBA fibroblasts bearing L444P (GM08760A, homozygous p.L444P); compound at concentrations between 6 and 50 μM; 4 days incubation
# Procedure: Human fibroblasts from a patient with Gaucher disease homozygous for p.L444P mutation (GM08760A) were purchased from Coriell Institute for Medical Research (Camden, NJ, USA).
# Fibroblasts were seeded at 5×10^3 cells per well in 96-well cell culture plates (Corning, NY, USA) in Dulbecco's Modified Eagle's Media (DMEM) supplemented with 10% of fetal bovine serum (FBS), 1% penicillin/streptomycin (P/S) (Thermo Fisher Scientific, Waltham, MA, USA) and grown at 37° C., 5% CO2 overnight for cell attachment. Subsequently, cells were incubated in the absence or presence of the compounds at the desired concentration for 4 days. After incubation, cells were washed twice with phosphate-buffered saline (PBS) and enzyme activity assay was performed.
# β-glucocerebrosidase activity in intact cultured cells was measured by using 4-methylumbelliferyl-β-D-glucopyranoside substrate (Apollo Scientific, UK). Briefly, cells were incubated with 4-MU-β-D-glucopyranoside in 0.1 M acetate buffer pH=4 at 37° C. for 1 hour. The reaction was stopped by adding 200 μL at 100 mM glycine-NaOH pH=10.7. The liberated 4-MU was measured on a GloMax Discover plate reader (Promega, Madison, WI, USA) with and excitation at 340 nm and emission at 460 nm. Enzyme activities were expressed in treated cells as X-fold increase in comparison with non-treated cells (X=1 represents no enhancement).
# The capacity of the compounds of the disclosure to produce an increase in enzyme activity in GBA fibroblasts bearing L444P at concentrations between 6 and 50 μM is denoted as follows: • Increase in comparison with non-treated of >2.0 fold is shown as A • Increase in comparison with non-treated of >1.7-2.0 fold is shown as B • Increase in comparison with non-treated of 1.2-1.7 fold is shown as C • D means that no increase compared with non-treated cells was detected in this method • ND means “not determined”
Structure (SMILES),Range: increase in enzyme activity in comparison with non-treated cells (Enzyme activity assay for compounds of Examples 33-141),Range: increase in enzyme activity in comparison with non-treated cells (Enzyme activity assay for exemplified compounds)
"COc1ccccc1Nc1cc(N)nc(C(=O)N2Cc3ccccc3C2)c1 [Example 59, (6-Amino-4-((2-methoxyphenyl)amino)pyridin-2-yl)(isoindolin-2-yl)methanone]",C (Increase in comparison with non-treated of 1.2-1.7 fold is shown as C),–
"CN(C(=O)c1cc(N)nc(Nc2ccccc2O)c1)c1ccccc1 [Example 43, 2-Amino-6-((2-hydroxyphenyl)amino)-N-methyl-N-phenylisonicotinamide]",C (Increase in comparison with non-treated of 1.2-1.7 fold is shown as C),–
"COc1ccccc1Nc1cc(N)nc(C(=O)NC2CCc3ccccc3C2)c1 (stereo not drawn) [Example 52, 6-Amino-4-((2-methoxyphenyl)amino)-N-(1,2,3,4-tetrahydronaphthalen-2-yl)picolinamide]",B (Increase in comparison with non-treated of >1.7-2.0 fold is shown as B),–
"Nc1cc(Nc2ccccc2F)nc(C(=O)Nc2ccccc2)c1 [Example 75, 4-Amino-6-((2-fluorophenyl)amino)-N-phenylpicolinamide]",C (Increase in comparison with non-treated of 1.2-1.7 fold is shown as C),–
"Nc1nc(Nc2ccccc2O)cc(C(=O)N2Cc3ccccc3C2)n1 [Example 86, (2-Amino-6-((2-hydroxyphenyl)amino)pyrimidin-4-yl)(isoindolin-2-yl)methanone]",C (Increase in comparison with non-treated of 1.2-1.7 fold is shown as C),–
"Nc1cc(C(=O)Nc2ccccc2)nc(Nc2ccccc2O)n1 [Example 11, 6-Amino-2-((2-hydroxyphenyl)amino)-N-phenylpyrimidine-4-carboxamide]",–,B (Increase in comparison with non-treated of >1.7-2.0 fold is shown as B)
"Nc1cc(C(=O)N2CCN(c3ccccc3)CC2)nc(Nc2ccccc2O)n1 [Example 1, (6-Amino-2-((2-hydroxyphenyl)amino)pyrimidin-4-yl)(4-phenylpiperazin-1-yl)methanone]",–,C (Increase in comparison with non-treated of 1.2-1.7 fold is shown as C)
"Cc1ccccc1Nc1cc(N)cc(C(=O)NC2Cc3ccccc3C2)n1 [Example 87, 4-Amino-N-(2,3-dihydro-1H-inden-2-yl)-6-(o-tolylamino)picolinamide]",B (Increase in comparison with non-treated of >1.7-2.0 fold is shown as B),–
"COc1ccccc1Nc1cc(N)nc(C(=O)Nc2ccccc2)c1 [Example 53, 6-Amino-4-((2-methoxyphenyl)amino)-N-phenylpicolinamide]",C (Increase in comparison with non-treated of 1.2-1.7 fold is shown as C),–
"Nc1cc(Nc2ccccc2Cl)nc(C(=O)NC2Cc3ccccc3C2)c1 [Example 101, 4-Amino-6-((2-chlorophenyl)amino)-N-(2,3-dihydro-1H-inden-2-yl)picolinamide]",B (Increase in comparison with non-treated of >1.7-2.0 fold is shown as B),–
"Nc1cc(Nc2ccccc2F)nc(C(=O)N2Cc3ccccc3C2)c1 [Example 103, (6-(2-Fluorophenylamino)-4-aminopyridin-2-yl)(isoindolin-2-yl)methanone]",C (Increase in comparison with non-treated of 1.2-1.7 fold is shown as C),–
"Cc1cccc(Nc2nc(N)cc(C(=O)N3Cc4ccccc4C3)n2)c1 [Example 40, (6-Amino-2-(m-tolylamino)pyrimidin-4-yl)(isoindolin-2-yl)methanone]",C (Increase in comparison with non-treated of 1.2-1.7 fold is shown as C),–
"Cc1cccc(NC(=O)c2cc(N)cc(Nc3cccc(F)c3)n2)c1.Cl [Example 136, 4-Amino-6-((3-fluorophenyl)amino)-N-(m-tolyl)picolinamide hydrochloride]",A (Increase in comparison with non-treated of >2.0 fold is shown as A),–
"Nc1cc(Nc2cccc3c2OCO3)nc(C(=O)Nc2ccccc2)c1 [Example 94, 4-Amino-6-(benzo[d][1,3]dioxol-4-ylamino)-N-phenylpicolinamide]",B (Increase in comparison with non-treated of >1.7-2.0 fold is shown as B),–
"Nc1cc(C(=O)NC2Cc3ccccc3C2)nc(Nc2ccccc2O)n1 [Example 13, 6-Amino-N-(2,3-dihydro-1H-inden-2-yl)-2-((2-hydroxyphenyl)amino)pyrimidine-4-carboxamide]",–,C (Increase in comparison with non-treated of 1.2-1.7 fold is shown as C)
"Nc1cc(Nc2ccc(F)cc2O)cc(C(=O)Nc2ccccc2)n1 [Example 78, 6-Amino-4-((4-fluoro-2-hydroxyphenyl)amino)-N-phenylpicolinamide]",B (Increase in comparison with non-treated of >1.7-2.0 fold is shown as B),–
"CN(C(=O)c1cc(Nc2ccccc2O)nc(N)n1)C1Cc2ccccc2C1 [Example 82, 2-Amino-N-(2,3-dihydro-1H-inden-2-yl)-6-((2-hydroxyphenyl)amino)-N-methylpyrimidine-4-carboxamide]",C (Increase in comparison with non-treated of 1.2-1.7 fold is shown as C),–
"COc1ccccc1Nc1cc(C(=O)N2CCN(c3ccccc3)CC2)nc(N)n1 [Example 34, (2-Amino-6-((2-methoxyphenyl)amino)pyrimidin-4-yl)(4-phenylpiperazin-1-yl)methanone]",D,–
"Nc1cc(Nc2ccccc2O)nc(C(=O)N2Cc3ccccc3C2)c1 [Example 104, (4-Amino-6-((2-hydroxyphenyl)amino)pyridin-2-yl)(isoindolin-2-yl)methanone]",C (Increase in comparison with non-treated of 1.2-1.7 fold is shown as C),–
"Cl.Nc1cc(Nc2cccc(F)c2)nc(C(=O)NC2Cc3ccccc3C2)c1 [Example 138, 4-Amino-N-(2,3-dihydro-1H-inden-2-yl)-6-((3-fluorophenyl)amino)picolinamide hydrochloride]",A (Increase in comparison with non-treated of >2.0 fold is shown as A),–
"Nc1nc2c(c(Nc3ccccc3O)n1)CCN(Cc1ccccc1)C2 [Example 25, 2-((2-Amino-7-benzyl-5,6,7,8-tetrahydropyrido[3,4-d]pyrimidin-4-yl)amino)phenol]",–,B (Increase in comparison with non-treated of >1.7-2.0 fold is shown as B)
"Nc1cc(Nc2cccnc2)cc(C(=O)Nc2ccccc2)n1 [Example 80, 6-Amino-N-phenyl-4-(pyridin-3-ylamino)picolinamide]",C (Increase in comparison with non-treated of 1.2-1.7 fold is shown as C),–
"Nc1nc(Nc2ccccc2O)cc(C(=O)N2CCc3ccccc3C2)n1 [Example 85, (2-Amino-6-((2-hydroxyphenyl)amino)pyrimidin-4-yl)(3,4-dihydroisoquinolin-2(1H)-yl)methanone]",C (Increase in comparison with non-treated of 1.2-1.7 fold is shown as C),–
"Nc1cc(Nc2ccccc2O)cc(C(=O)NC2Cc3ccccc3C2)n1 [Example 67, 6-Amino-N-(2,3-dihydro-1H-inden-2-yl)-4-((2-hydroxyphenyl)amino)picolinamide]",B (Increase in comparison with non-treated of >1.7-2.0 fold is shown as B),–
